The source of these data is publication PMC9194936, “Preclinical Activity and Pharmacokinetic/Pharmacodynamic Relationship for a Series of Novel Benzenesulfonamide Perforin Inhibitors” (ACS Pharmacology & Translational Science, 2022).

Data set [1] in a line: Plasma protein binding by equilibrium dialysis. It counts as in vitro ADME, mouse. On the procedure:
The plasma protein binding of the compounds was determined by equilibrium dialysis (12–14 kDa cutoff membrane). […] The dialysis unit was covered with an adhesive sealing film to prevent evaporation of the contents and placed in an incubator (Innova-42, New Brunswick Scientific) maintained at 37 °C with gentle mixing (80 rpm) for 6 h. Next, a 10 μL sample was aspirated from the plasma side and mixed with 90 μL of fresh PBS, whereas a 90 μL sample from the buffer side was removed and combined with 10 μL of drug-free plasma to ensure uniform matrix composition. Ice-cold acetonitrile (300 μL; Merck Millipore, Burlington, MA) containing internal standard (a BZS analogue of similar chemical structure) was added to each sample to precipitate protein and was vortexed for 2 min and centrifuged for 5 min at 13 000 rpm. The supernatant was diluted with 0.01% formic acid in ultrapure water (Milli-Q) (1:1) and quantitated by liquid chromatography–tandem mass spectrometry (LC-MS/MS). Each compound was tested in triplicate alongside control compounds known to have low (e.g., lidocaine) and high (e.g., amitriptyline) plasma protein binding. For media binding studies, the same assay was used, but RPMI with 0.1% BSA was used in place of CD1 mouse plasma.
(Equilibrium dialysis compares concentrations on both sides of a semipermeable membrane.)

Data set [2] is described as follows: Binding to proteins in KHYG-1 cell media (RPMI with 0.1% BSA) by equilibrium dialysis. It counts as in vitro ADME. The settings on record: bovine, pH 7.4, read-out: free fraction in the KHYG-1 cell media.
A short description of data set [3]: Bodyweight, spleen and blood cellularity in unmanipulated naive mice. It counts as in vivo, mouse. From the text:
Splenic atrophy may occur as a direct treatment-related effect or indirectly subsequent to bodyweight loss.[32] Spleen size does normally vary so is not a reliable indicator of splenic dysfunction;[33] however, severe atrophy can prevent the normal function of the spleen and indicate systemic immunotoxicity.[34] Given that reduced splenic cellularity had not been noted in other in vivo mouse disease models using 1,[14],[15] we further investigated the impact of 1 on mouse spleen using extended dosing strategies on unmanipulated naïve mice and assessing changes in bodyweight, splenocyte, and blood cell counts and leukocyte frequencies in the spleen. The mice were treated with either 100 or 150 mg/kg of 1 given by intraperitoneal injection twice daily for up to 7 days.
For the determination of splenic cell counts, mouse spleens were harvested and the cells dispersed in media by gentle teasing and then centrifuged at 500g. Cell pellets were resuspended in media and total spleen cell counts were performed manually using a standard hemocytometer and light microscopy. Lymphocyte subsets were quantified by flow cytometry using the following antibody reagents: BV605 rat anti-mouse CD3 clone 17A2 (#564009, BD Biosciences); BV786 rat anti-mouse CD4 clone RM4–5 (#563727, BD Biosciences); BV711 rat anti-mouse CD8a clone 53-6.7 (#100748, BioLegend); PE-Cy7 mouse anti-mouse NK1.1 clone PK136 mouse (#552878, BD Biosciences); APC rat anti-mouse CD19 clone 1D3 (#550992, BD Biosciences). Peripheral blood cell counts and spleen white blood cell counts were determined on a Beckman Coulter Ac.T diff hematology analyzer.

For the next data set, the target named is T1, perforin (Mus musculus, UniProt P10820).
T1 construct: endogenous in cells; host or cells: recipient cytotoxic lymphocytes (NK/CTL) of wild-type C57BL/6 mice, in vivo
T1 sequence (P10820 21-554): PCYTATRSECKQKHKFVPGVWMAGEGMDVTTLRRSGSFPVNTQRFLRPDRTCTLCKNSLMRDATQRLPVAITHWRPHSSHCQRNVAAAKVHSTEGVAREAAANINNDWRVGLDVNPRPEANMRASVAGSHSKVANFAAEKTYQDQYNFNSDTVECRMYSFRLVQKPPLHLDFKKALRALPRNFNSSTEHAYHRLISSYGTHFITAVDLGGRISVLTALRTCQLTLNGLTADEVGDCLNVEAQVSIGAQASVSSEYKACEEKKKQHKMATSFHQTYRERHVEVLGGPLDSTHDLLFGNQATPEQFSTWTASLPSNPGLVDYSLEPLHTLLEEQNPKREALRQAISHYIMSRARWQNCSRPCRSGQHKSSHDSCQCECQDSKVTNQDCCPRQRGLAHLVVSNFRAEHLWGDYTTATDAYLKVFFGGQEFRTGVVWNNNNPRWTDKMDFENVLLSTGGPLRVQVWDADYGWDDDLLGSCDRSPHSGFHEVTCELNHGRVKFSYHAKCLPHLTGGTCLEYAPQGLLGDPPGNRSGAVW
The data set can be described thus: PK/PD relationship (sigmoid Emax model, regression analysis). The settings on record: in vivo mouse model. On the procedure:
The relationship between efficacy (% perforin inhibition in peripheral blood and spleen) and pharmacokinetics was determined for different pharmacokinetic properties (Figure 5A,B). […] Simply maintaining the concentrations above a minimal level without reaching very high levels was not sufficient for perforin inhibition, as exemplified by three doses at 80 mg/kg.
The normality of in vivo perforin inhibition data was checked by Shapiro–Wilk and D’Agostino–Pearson normality tests. Statistical tests were performed by one-way ANOVA with multiple comparisons made to the vehicle-treated group and corrected using Dunnett’s post-test analysis. A comparison of measured and simulated plasma concentrations was analyzed by linear regression. Efficacy data were correlated to pharmacokinetic data using a sigmoid Emax model and regression analysis. All statistical analyses were conducted using Prism v8 or 9.

Data set [4] is described as follows: KHYG-1 viability (Trypan Blue exclusion). It counts as cell-based. To be noted: human, KHYG-1 NK cells, at 20 μM. On the procedure: The toxicity of perforin inhibitors toward KHYG-1 NK cells was determined as described previously.[14] KHYG-1 cells were preincubated with compounds in the same manner as the KHYG-1 cytotoxicity assay prior to the addition of RPMI with 0.1% BSA and incubation at 37 °C for 4 h. The cells were then washed and resuspended in complete medium and incubated for a further 24 h at 37 °C, after which cell viability was assessed by Trypan Blue (Thermo Fisher Scientific) exclusion.

Structures are written as SMILES. Marks after values point to notes of the source that are not given here. A value given as a limit tells only on which side of the number the result lay.

`CN1Cc2cc(-c3ccc(-c4cncc(NS(=O)(=O)c5ccccc5[N+](=O)[O-])c4)s3)ccc2C1=O` [Compound 1, N-{5-[5-(2-methyl-1-oxo-2,3-dihydro-1H-isoindol-5-yl)-2-thienyl]-3-pyridinyl}-2-nitrobenzenesulfonamide]: the fraction unbound at 6 h in data set [1] (CD1, mouse, pH 7.4, without saturation of plasma protein binding (99.8% protein-bound), read-out: free fraction in plasma) came to 0.002. The total plasma concentration required for unbound IC90 at 6 h in data set [1] (CD1, mouse, pooled mouse plasma, pH 7.4, at a free fraction of 0.002, read-out: total plasma concentrations required to achieve unbound plasma concentrations equivalent to the in vitro unbound IC90) was roughly 350 µM. The compound also gave a fraction unbound at 6 h, 10 μM in data set [1] (CD1, pH 7.4, mouse plasma, 10 μM, equilibrium dialysis) of 0.002. In data set [1] (CD1, pooled mouse plasma, pH 7.4, concentration 10 μM, mouse plasma), this compound had a fraction unbound at 6 h, 10 μM of 0.002. In addition, the fraction unbound at 6 h, 100 μM in data set [1] (CD1, pooled mouse plasma, pH 7.4, concentration 100 μM, mouse plasma) is 0.0006. The fraction unbound at 6 h, 500 μM in data set [1] (CD1, pooled mouse plasma, pH 7.4, concentration 500 μM, mouse plasma) is 0.0019. In addition, the fraction unbound at 6 h, 1000 μM in data set [1] (CD1, pooled mouse plasma, pH 7.4, concentration 1000 μM, mouse plasma) was 0.0038. For the same compound, the “increase in free drug concentrations” value in data set [1] (between 500 and 1000 μM) is 4 fold. The same compound registered an unbound concentration in data set [1] (concentration 10 μM, mouse plasma) of 20 nM. Moreover, the unbound concentration in data set [1] (concentration 100 μM, mouse plasma) came out at 60 nM. The compound further displayed an unbound concentration in data set [1] (concentration 500 μM, mouse plasma) of 950 nM. Besides, the unbound concentration in data set [1] (concentration 1000 μM, mouse plasma) turned out to be 3800 nM. The fraction unbound at 6 h, 10 μM in data set [2] amounted to 0.144. Further, in data set [3] (100 mg/kg i.p. bid ×7, n = 2), the platelets is listed as 1041.5 ± 0.3 ^b ×10^9/L, the red blood cell was 9.9 ± 0.3 ^b ×10^12/L and the white blood cell was 6.1 ± 2.0 ^b ×10^9/L. For the same compound, in data set [3] (100 mg/kg i.p. bid ×7, n = 6), the “% change in bodyweight” value is “–5 ± 2%”, the “spleen: % CD3+CD4+” value came to 7.9 ± 3.3%, the “spleen: % CD3+CD8+” value is on record as 9.1 ± 2.6% and the “spleen: % CD19+” value worked out at 45.4 ± 10.1%. In data set [3] (100 mg/kg i.p. bid ×7, n = 6), the “spleen: % NK1.1+” value came out at 2.3 ± 0.6% and the “spleen: total cell count” value is 0.39 ± 0.08 ×10^8. Further, in data set [3] (150 mg/kg i.p. bid ×3, n = 3), the “% change in bodyweight” value is given as “–5.1 ± 5.9%”, the platelets is listed as 1163 ± 149 ×10^9/L, the red blood cell is given as 9.5 ± 0.9 ×10^12/L and the “spleen: % CD3+CD4+” value came out at 5.6 ± 3.8%. In data set [3] (150 mg/kg i.p. bid ×3, n = 3), the “spleen: % CD3+CD8+” value is on record as 10.6 ± 3.4%, the “spleen: % CD19+” value was 41.4 ± 5.3%, the “spleen: % NK1.1+” value came out at 5.0 ± 0.7% and the “spleen: total cell count” value is listed as 0.41 ± 0.46 ×10^8. Also, the white blood cell in data set [3] (150 mg/kg i.p. bid ×3, n = 3) is reported as 6.0 ± 0.4 ×10^9/L. In addition, in data set [3] (100 or 150 mg/kg i.p. twice daily for up to 7 days), the “weight loss, change in spleen or blood cell counts, reduction in splenic T, B or NK cells vs vehicle” value is “Neither dosing schedule resulted in weight loss, change in spleen or blood cell counts or any reduction”. Besides, the “total plasma concentration to be continuously maintained for optimal perforin inhibition” value at perforin is greater than 900 µM.
As usually defined, the viability is a per cent measure of how many cells are alive, often set against a control. Read a low viability as a greater loss of cells. Turning to `O=C1NCc2ccc(-c3ccc(-c4cncc(NS(=O)(=O)c5ccc(F)cc5F)c4)s3)cc21` [Compound 7, 2,4-difluoro-N-{5-[5-(3-oxo-2,3-dihydro-1H-isoindol-5-yl)-2-thienyl]-3-pyridinyl}benzenesulfonamide], the viability at 24 h, 20 µM in data set [4] is 96 ± 6%.
